{"source": "patent US7399638B2", "about": "“Prediction method for lipidosis” (Takeda Pharmaceutical Company Limited, priority 2003, dated 2008)", "key": {"[1]": {"tested_on": "Crj: CD(SD)IGS rats", "settings": "rat, gavage once daily for 3 days; printed on the line of the lowest dose, dose group unclear", "experimental": "Each test drug was administered by gavage at a dosing liquid volume of 10 mL/kg/day once daily for 3 days (4 days for the negative control). The animals were examined for mortality, general conditions, body weight, food consumption and the like using PM4800 (Mettler) and EB3200D (Shimadzu Corporation)."}, "[2]": {"tested_on": "Crj: CD(SD)IGS rats", "settings": "rat, in vivo", "protocol": "(§1) The following 10 kinds of commercially available drugs were examined as the test compounds for a potential of inducing PLsis by histopathological examination and peripheral blood lymphocyte testing.\n(§2) The following experiments were performed using the prematurely autopsied animals.\n(§3) The high-dose dosing suspension was diluted about 3 fold and 10 fold with dispersant/solvent to prepare intermediate- and low-dose dosing suspensions. […] [For LD50, the Summary Basis of Approval (FDA) for each drug was referenced to.]\n(§4) The animals were examined for mortality, general conditions, body weight, food consumption and the like using PM4800 (Mettler) and EB3200D (Shimadzu Corporation)."}, "[3]": {"tested_on": "Crj: CD(SD)IGS rats", "experiment": "Urinary PAG/hippuric acid ratio by 1H NMR in rats", "settings": "rat urine, 3 days, mean n = 3-4", "experimental": "During the urine pooling, the collecting vessels were kept in an ice-cooled condition. After the urine collection, the urine was centrifuged at 1500×g for 10 minutes, and not less than 1 mL of the supernatant was collected and stored under freezing (below −70° C.) in a microtube in an ultralow-temperature freezer until the measurement. For the negative control group, 24-hour pooled urine was collected under ice cooling; after the urine collection, the urine was stored at −30° C. until the measurement."}, "[4]": {"tested_on": "Crj: CD(SD)IGS rats", "settings": "male, rat, in vivo, 3 days", "protocol": "as §1, §2, §3, §4\nHematological examination was performed for parameters such as RBC count, hematocrit, hemoglobin concentration, mean corpuscular hemoglobin (MCH), mean corpuscular hemoglobin concentration (MCHC), mean corpuscular volume (MCV), platelet count, WBC count, reticulocyte count, differential WBC, and vacuolated lymphocyte ratio (for PLsis-inducing compounds only) using ADVIA120 (Bayer Medical Ltd.) and E-4000 (Sysmex Corporation)."}, "[5]": {"settings": "cited from earlier work"}, "[6]": {"tested_on": "Crj: CD(SD)IGS rats", "settings": "rat urine, LC-MS/MS, 60 mg/kg/day by gavage for 7 days", "experimental": "During that period, the animals were quarantined, examined for general conditions, and weighed. Animals showing no abnormalities were selected and randomly allocated to five groups for urine collection each comprising four males.\nThe animals were individually housed in wire-net-based metal cages, and the individual cages were placed on water-washable rack in a clean booth as randomized for the animal groups. Animal room environmental conditions comprised a room temperature of 20 to 26° C., a relative humidity of 40 to 70%, and a fresh air ventilation frequency of 8 to 25 times/hour, with a bright phase of 12 hours/day (lighting time: 7:00 am to 7:00 pm). The animals were fed a γ-ray-irradiated powder food (CR-LPF, Oriental Yeast Co., Ltd.) and had free access to the food along with tap water.\nA dispersant/medium was added to each test material, and the mixture was stirred to prepare dosing suspensions.\nEach test material was administered by gavage at a dosing suspension volume of 10 mL/kg/day once daily for 7 days.\nAfter completion of the administration, pooled urine was collected with ice cooling from all animals under fasting and water denial for about 6 hours. […]\nQuantitative analyses of rat urinary hippuric acid and PAG by LC-MS/MS were performed as described below. […]"}}, "note": "Read-outs that look alike come from different tables or passages of the source. Marks after values point to notes of the source that are not given here.", "data": [{"smiles": "CN(C)CCCN1c2ccccc2CCc2ccc(Cl)cc21", "note": "[Clomipramine, clomipramine]", "values": [{"measurement": "death (note beside the dose)", "setting": "[1]", "value": "(death)"}, {"measurement": "Histopathological changes (PLsis): Liver", "setting": "[2]; 100 mg/kg/day", "value": "−"}, {"measurement": "Histopathological changes (PLsis): Lung", "setting": "[2]; 100 mg/kg/day", "value": "−"}, {"measurement": "Histopathological changes (PLsis): Lymph node", "setting": "[2]; 100 mg/kg/day", "value": "−"}, {"measurement": "Histopathological changes (PLsis): Others", "setting": "[2]; 100 mg/kg/day", "value": "−"}, {"measurement": "Histopathological changes (PLsis): Spleen", "setting": "[2]; 100 mg/kg/day", "value": "−"}, {"measurement": "Histopathological changes (PLsis): Liver", "setting": "[2]; 300 mg/kg/day", "value": "−"}, {"measurement": "Histopathological changes (PLsis): Lung", "setting": "[2]; 300 mg/kg/day", "value": "+"}, {"measurement": "Histopathological changes (PLsis): Lymph node", "setting": "[2]; 300 mg/kg/day", "value": "+"}, {"measurement": "Histopathological changes (PLsis): Others", "setting": "[2]; 300 mg/kg/day", "value": "−"}, {"measurement": "Histopathological changes (PLsis): Spleen", "setting": "[2]; 300 mg/kg/day", "value": "−"}, {"measurement": "Histopathological changes (PLsis): Liver", "setting": "[2]; 1000 mg/kg/day", "value": "+"}, {"measurement": "Histopathological changes (PLsis): Lung", "setting": "[2]; 1000 mg/kg/day", "value": "−"}, {"measurement": "Histopathological changes (PLsis): Lymph node", "setting": "[2]; 1000 mg/kg/day", "value": "+"}, {"measurement": "Histopathological changes (PLsis): Others", "setting": "[2]; 1000 mg/kg/day", "value": "Kidney"}, {"measurement": "Histopathological changes (PLsis): Spleen", "setting": "[2]; 1000 mg/kg/day", "value": "−"}, {"measurement": "PAG + hippuric acid/creatinine", "setting": "[3]; 100 mg/kg/day by gavage", "value": 1.42}, {"measurement": "PAG/PAG + hippuric acid", "setting": "[3]; 100 mg/kg/day by gavage", "value": 14.27, "unit": "%"}, {"measurement": "PAG/creatinine (first term of PAG + hippuric acid)", "setting": "[3]; 100 mg/kg/day by gavage", "value": 0.20}, {"measurement": "PAG/hippuric acid", "setting": "[3]; 100 mg/kg/day by gavage", "value": 16.79, "unit": "%"}, {"measurement": "hippuric acid/creatinine (second term of PAG + hippuric acid)", "setting": "[3]; 100 mg/kg/day by gavage", "value": 1.22}, {"measurement": "PAG + hippuric acid/creatinine", "setting": "[3]; 300 mg/kg/day by gavage", "value": "0.74*"}, {"measurement": "PAG/PAG + hippuric acid", "setting": "[3]; 300 mg/kg/day by gavage", "value": "33.36* %"}, {"measurement": "PAG/creatinine (first term of PAG + hippuric acid)", "setting": "[3]; 300 mg/kg/day by gavage", "value": 0.20}, {"measurement": "PAG/hippuric acid", "setting": "[3]; 300 mg/kg/day by gavage", "value": "62.72* %"}, {"measurement": "hippuric acid/creatinine (second term of PAG + hippuric acid)", "setting": "[3]; 300 mg/kg/day by gavage", "value": 0.52}, {"measurement": "Mean vacuolated lymphocyte ratio", "setting": "[4]; 100 mg/kg/day", "value": 2, "unit": "%"}, {"measurement": "Mean vacuolated lymphocyte ratio", "setting": "[4]; 300 mg/kg/day", "value": 30, "unit": "%"}, {"measurement": "Mean vacuolated lymphocyte ratio", "setting": "[4]; 1000 mg/kg/day", "value": 38, "unit": "%"}, {"measurement": "LD50", "setting": "[5]; in vivo", "value": 914, "unit": "mg/kg"}]}, {"smiles": "NC12CC3CC(CC(C3)C1)C2", "note": "[Amantadine]", "values": [{"measurement": "death (note beside the dose)", "setting": "[1]", "value": "(death)"}, {"measurement": "PAG + hippuric acid/creatinine", "setting": "[3]; 75 mg/kg/day by gavage", "value": 1.44}, {"measurement": "PAG/PAG + hippuric acid", "setting": "[3]; 75 mg/kg/day by gavage", "value": 16.17, "unit": "%"}, {"measurement": "PAG/creatinine (first term of PAG + hippuric acid)", "setting": "[3]; 75 mg/kg/day by gavage", "value": 0.23}, {"measurement": "PAG/hippuric acid", "setting": "[3]; 75 mg/kg/day by gavage", "value": 19.31, "unit": "%"}, {"measurement": "PAG + hippuric acid/creatinine", "setting": "[3]; 250 mg/kg/day by gavage", "value": 1.21}, {"measurement": "PAG/PAG + hippuric acid", "setting": "[3]; 250 mg/kg/day by gavage", "value": 16.18, "unit": "%"}, {"measurement": "PAG/creatinine (first term of PAG + hippuric acid)", "setting": "[3]; 250 mg/kg/day by gavage", "value": 0.20}, {"measurement": "PAG/hippuric acid", "setting": "[3]; 250 mg/kg/day by gavage", "value": 19.69, "unit": "%"}, {"measurement": "hippuric acid/creatinine (second term of PAG + hippuric acid)", "setting": "[3]; 250 mg/kg/day by gavage", "value": 1.02}, {"measurement": "PAG + hippuric acid/creatinine", "setting": "[3]; 750 mg/kg/day by gavage", "value": 0.37}, {"measurement": "PAG/PAG + hippuric acid", "setting": "[3]; 750 mg/kg/day by gavage", "value": 56.58, "unit": "%"}, {"measurement": "PAG/creatinine (first term of PAG + hippuric acid)", "setting": "[3]; 750 mg/kg/day by gavage", "value": 0.21}, {"measurement": "PAG/hippuric acid", "setting": "[3]; 750 mg/kg/day by gavage", "value": 130.33, "unit": "%"}, {"measurement": "hippuric acid/creatinine (second term of PAG + hippuric acid)", "setting": "[3]; 750 mg/kg/day by gavage", "value": 0.16}]}, {"smiles": "CCN(CC)CCCC(C)Nc1c2ccc(Cl)cc2nc2ccc(OC)cc12", "note": "(stereo not drawn) [Quinacrine, quinacrine]", "values": [{"measurement": "PAG/hippuric acid concentration ratio compared to the control group", "setting": "[6]", "value": "increased"}, {"measurement": "PAG/hippuric acid ratio", "setting": "[6]; mean ± SD n = 4", "value": "0.2178 ± 0.0919"}, {"measurement": "Histopathological changes (PLsis): Liver", "setting": "[2]; 60 mg/kg/day", "value": "+"}, {"measurement": "Histopathological changes (PLsis): Lung", "setting": "[2]; 60 mg/kg/day", "value": "+"}, {"measurement": "Histopathological changes (PLsis): Lymph node", "setting": "[2]; 60 mg/kg/day", "value": "−"}, {"measurement": "Histopathological changes (PLsis): Others", "setting": "[2]; 60 mg/kg/day", "value": "−"}, {"measurement": "Histopathological changes (PLsis): Spleen", "setting": "[2]; 60 mg/kg/day", "value": "−"}, {"measurement": "Histopathological changes (PLsis): Liver", "setting": "[2]; 200 mg/kg/day", "value": "+"}, {"measurement": "Histopathological changes (PLsis): Lung", "setting": "[2]; 200 mg/kg/day", "value": "+"}, {"measurement": "Histopathological changes (PLsis): Lymph node", "setting": "[2]; 200 mg/kg/day", "value": "+"}, {"measurement": "Histopathological changes (PLsis): Others", "setting": "[2]; 200 mg/kg/day", "value": "−"}, {"measurement": "Histopathological changes (PLsis): Spleen", "setting": "[2]; 200 mg/kg/day", "value": "−"}, {"measurement": "Histopathological changes (PLsis): Liver", "setting": "[2]; 600 mg/kg/day", "value": "+"}, {"measurement": "Histopathological changes (PLsis): Lung", "setting": "[2]; 600 mg/kg/day", "value": "+"}, {"measurement": "Histopathological changes (PLsis): Lymph node", "setting": "[2]; 600 mg/kg/day", "value": "+"}, {"measurement": "Histopathological changes (PLsis): Others", "setting": "[2]; 600 mg/kg/day", "value": "−"}, {"measurement": "Histopathological changes (PLsis): Spleen", "setting": "[2]; 600 mg/kg/day", "value": "−"}, {"measurement": "PAG + hippuric acid/creatinine", "setting": "[3]; 60 mg/kg/day by gavage", "value": 1.45}, {"measurement": "PAG/PAG + hippuric acid", "setting": "[3]; 60 mg/kg/day by gavage", "value": "21.82* %"}, {"measurement": "PAG/creatinine (first term of PAG + hippuric acid)", "setting": "[3]; 60 mg/kg/day by gavage", "value": 0.32}, {"measurement": "PAG/hippuric acid", "setting": "[3]; 60 mg/kg/day by gavage", "value": "28.35* %"}, {"measurement": "hippuric acid/creatinine (second term of PAG + hippuric acid)", "setting": "[3]; 60 mg/kg/day by gavage", "value": 1.13}, {"measurement": "PAG + hippuric acid/creatinine", "setting": "[3]; 200 mg/kg/day by gavage", "value": 1.58}, {"measurement": "PAG/PAG + hippuric acid", "setting": "[3]; 200 mg/kg/day by gavage", "value": "46.42* %"}, {"measurement": "PAG/creatinine (first term of PAG + hippuric acid)", "setting": "[3]; 200 mg/kg/day by gavage", "value": 0.75}, {"measurement": "PAG/hippuric acid", "setting": "[3]; 200 mg/kg/day by gavage", "value": "91.89* %"}, {"measurement": "hippuric acid/creatinine (second term of PAG + hippuric acid)", "setting": "[3]; 200 mg/kg/day by gavage", "value": 0.83}, {"measurement": "PAG + hippuric acid/creatinine", "setting": "[3]; 600 mg/kg/day by gavage", "value": "1.07*"}, {"measurement": "PAG/PAG + hippuric acid", "setting": "[3]; 600 mg/kg/day by gavage", "value": "78.62* %"}, {"measurement": "PAG/creatinine (first term of PAG + hippuric acid)", "setting": "[3]; 600 mg/kg/day by gavage", "value": 0.83}, {"measurement": "PAG/hippuric acid", "setting": "[3]; 600 mg/kg/day by gavage", "value": "441.69* %"}, {"measurement": "hippuric acid/creatinine (second term of PAG + hippuric acid)", "setting": "[3]; 600 mg/kg/day by gavage", "value": 0.24}, {"measurement": "Mean vacuolated lymphocyte ratio", "setting": "[4]; 60 mg/kg/day", "value": 14, "unit": "%"}, {"measurement": "Mean vacuolated lymphocyte ratio", "setting": "[4]; 200 mg/kg/day", "value": 32, "unit": "%"}, {"measurement": "Mean vacuolated lymphocyte ratio", "setting": "[4]; 600 mg/kg/day", "value": 52, "unit": "%"}, {"measurement": "LD50", "setting": "[5]; from Summary Basis of Approval (FDA), species and route not given", "value": 900, "unit": "mg/kg"}]}]}
